# From patent US11160797B2, “Pyridinone derivatives and their use as selective ALK-2 inhibitors” (NOVARTIS AG, priority 2017, dated 2021)
# pIC50: −log10 of the molar value.
# How the values were obtained:
# C57BL/6J male mice = conditions: mouse, in vivo
# [1] = target: ALK2 FOP mutant (aa172-499 R206H) (Homo sapiens (Human), UniProt Q04771, R206H); experiment: Caliper biochemical peptide phosphorylation assay, ALK2 FOP; conditions: Caliper peptide phosphorylation, R206H, 15 uM ATP; read-out: ALK2 FOP EPK IC50
# [2] = system: 18-month-old Wistar female rats; experiment: Bone gain in aged rats (pQCT and micro-CT, proximal tibia metaphysis); format: in vivo, rat; conditions: 5 mg/kg q.d. oral, 8 weeks, mean ± SEM
# Procedure: To assess the bone anabolic potential of compound A, its therapeutic efficacy in aged female rats as a model of age-related human osteoporosis and other low bone mass conditions was tested. To this end, 18-month-old Wistar female rats (n=8-9 rats per group; body weight range: 330-460 g) were subjected to two-month once daily oral treatment with compound A (5 mg/kg q.d.) or vehicle (sodium carboxymethyl cellulose:water:Tween 80, 0.5:99:0.5). Rats were housed at 25° C. with a 12:12 h light-dark cycle and were fed a standard rodent diet containing 18.2% protein and 3.0% fat with an energy content of 15.8 MJ/kg (3890, Provimi Kliba SA) with food and water provided ad libitum. Treatment efficacy was determined by in vivo peripheral quantitative computed tomography (pQCT) and micro-computed tomography (micro-CT) in the left proximal tibia metaphysis under isoflurane inhalation narcosis (Stratec-Norland XCT-2000 pQCT; voxel size: 0.1 mm×0.1 mm×0.5 mm; vivaCT40 instrument, Scanco Medical AG; 12.5 μm resolution) after 8 weeks of treatment. […] The latter was related to enhanced trabecular thickness, but not number. Thus, compound A is bone anabolic in the aged skeleton.
# [3] = target: T1, wild-type ALK2 (aa172-499) (Homo sapiens (Human), UniProt Q04771); experiment: Caliper biochemical peptide phosphorylation assay, ALK2; conditions: Caliper peptide phosphorylation, 15 uM ATP; read-out: ALK2 IC50
# [4] = target: T1, wild-type ALK2 (aa172-499); experiment: ADPGlo biochemical autophosphorylation assay, ALK2; conditions: 15 uM ATP
# male Sprague Dawley rats = experiment: Turpentine oil-induced increase in serum hepcidin in rats; format: in vivo, rat; conditions: for Serum hepcidin concentration: 24 h post-TO
# Procedure: Measurements of serum hepcidin concentration were performed using a custom-made LC-MRM assay.
# 6 hours post-TO application sublingual blood samples were taken and serum was prepared from whole blood using clot activator centrifugation tubes (Sarstedt). […] 24 h post-TO application rats were sacrificed by CO2 overdosing and blood was isolated by venipuncture for serum preparation as described above. […] Statistical analyses were performed using GraphPad Prism software (GraphPad Software, Inc., La Jolla, Calif.) by two-way repeated measurement analysis of variance followed by Dunnett's multiple comparisons post-hoc test comparing treatment groups to the vehicle control group.
# ALK5 (aa162-503) = ALK5 (aa162-503) (Homo sapiens (Human), UniProt P36897); experiment: Caliper biochemical peptide phosphorylation assay, ALK5; conditions: 15 uM ATP
# Summary of the method: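 Baculovirus-expressed human GS+kinase-domain constructs (10 nM) with 2 uM fluorescein-labelled peptide and 15 uM ATP in 50 mM Hepes pH 7.5, 1 mM MgCl2, 12 mM MnCl2, 1 mM DTT, 10 uM Na3VO4, 60 min at 30 °C. EDTA stop; phospho/unphosphorylated peptide separated by microfluidic electrophoresis, r = p/(p+s); IC50 at half-maximal signal inhibition.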
# ALK2(Q207D) mice = experiment: ALK2-dependent heterotopic ossification in ALK2(Q207D) transgenic mice; format: in vivo, mouse; conditions: 3 and 5 weeks post-induction, 10 mg/kg b.i.d. oral
# female Wistar rats = experiment: Achilles midpoint tenotomy-induced heterotopic ossification in rats; format: in vivo, rat; conditions: 10 mg/kg q.d. oral
# Text: To test whether compound A was able to prevent trauma-induced heterotopic ossification (HO) of soft tissue, we tested its therapeutic efficacy in a rat model of unilateral Achilles midpoint tenotomy (Rooney et al., Matrix 12: 274-281, 1992). To this end, the left Achilles tendon of 8-week-old female Wistar rats (body weight between 190-265 g) was completely transected using a sterile scalpel (blade number 11) under isoflurane inhalation narcosis with concomitant analgesic treatment applying 0.03 mg/kg buprenorphine for 48 hours every 10-12 h subcutaneously. Preventive oral treatment with compound A (10 mg/kg q.d.) or vehicle (sodium carboxymethyl cellulose:water:Tween 80, 0.5:99:0.5) was given for 10 weeks starting on the day of surgery (n=11-12 rats per group). […] Treatment efficacy was assessed longitudinally by taking radiographs of the operated distal leg (Faxitron LX-60 system) at 4 and 10 weeks post-tenotomy. Heterotopic bone volume was quantified in vivo by micro-computed tomography (micro-CT) under isoflurane inhalation narcosis (vivaCT40 instrument, Scanco Medical AG; 17.5 μm resolution) at 6 and 9 weeks post-surgery. […]
# ALK6 (aa168-495) = ALK6 (aa168-495) (Homo sapiens (Human), UniProt O00238); experiment: Caliper biochemical peptide phosphorylation assay, ALK6; conditions: 15 uM ATP
# ALK3 (aa198-525) = ALK3 (aa198-525) (Homo sapiens (Human), UniProt P36894); experiment: ADPGlo biochemical autophosphorylation assay, ALK3; conditions: 15 uM ATP
# [5] = system: HuH7 cells, BMP response element (BRE) luciferase reporter, BMP6 stimulated; experiment: BMP signaling reporter gene assay; format: cell-based; conditions: Homo sapiens, Huh-7; BMP6 100 ng/ml; read-out: MSD HuH7 cell BMP reporter IC50
# ALK1 (aa166-493) = ALK1 (aa166-493) (Homo sapiens (Human), UniProt P37023); experiment: Caliper biochemical peptide phosphorylation assay, ALK1; conditions: 15 uM ATP
# Sequence of ALK1 (aa166-493) (P37023 166-493): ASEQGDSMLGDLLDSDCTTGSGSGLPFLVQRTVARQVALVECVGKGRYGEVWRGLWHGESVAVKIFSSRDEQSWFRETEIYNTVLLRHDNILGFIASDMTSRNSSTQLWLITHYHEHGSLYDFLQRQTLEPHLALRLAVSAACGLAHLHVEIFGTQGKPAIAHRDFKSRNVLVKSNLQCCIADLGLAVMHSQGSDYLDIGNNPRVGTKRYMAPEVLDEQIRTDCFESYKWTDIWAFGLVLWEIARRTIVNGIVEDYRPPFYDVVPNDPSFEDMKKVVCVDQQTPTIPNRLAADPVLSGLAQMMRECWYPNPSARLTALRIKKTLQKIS
# T1 sequence (Q04771 172-499): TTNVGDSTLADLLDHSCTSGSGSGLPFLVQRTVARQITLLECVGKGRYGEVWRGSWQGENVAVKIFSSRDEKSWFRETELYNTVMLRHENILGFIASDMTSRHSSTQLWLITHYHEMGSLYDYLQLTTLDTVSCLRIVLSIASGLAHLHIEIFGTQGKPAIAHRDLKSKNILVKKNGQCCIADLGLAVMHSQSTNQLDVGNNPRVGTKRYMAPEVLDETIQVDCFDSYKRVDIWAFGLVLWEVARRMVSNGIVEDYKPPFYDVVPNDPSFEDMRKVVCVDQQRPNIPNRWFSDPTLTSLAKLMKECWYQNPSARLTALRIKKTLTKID
# Sequence of ALK6 (aa168-495) (O00238 168-495): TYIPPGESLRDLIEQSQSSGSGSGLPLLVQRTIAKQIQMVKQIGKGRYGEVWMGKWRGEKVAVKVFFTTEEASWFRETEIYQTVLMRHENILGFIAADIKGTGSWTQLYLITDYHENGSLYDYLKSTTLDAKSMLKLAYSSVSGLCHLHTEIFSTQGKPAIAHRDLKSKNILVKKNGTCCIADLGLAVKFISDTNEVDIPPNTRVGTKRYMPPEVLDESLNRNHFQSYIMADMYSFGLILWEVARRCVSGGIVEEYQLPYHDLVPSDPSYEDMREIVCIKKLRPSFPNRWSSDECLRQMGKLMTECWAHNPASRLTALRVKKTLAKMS
# Sequence of ALK5 (aa162-503) (P36897 162-503): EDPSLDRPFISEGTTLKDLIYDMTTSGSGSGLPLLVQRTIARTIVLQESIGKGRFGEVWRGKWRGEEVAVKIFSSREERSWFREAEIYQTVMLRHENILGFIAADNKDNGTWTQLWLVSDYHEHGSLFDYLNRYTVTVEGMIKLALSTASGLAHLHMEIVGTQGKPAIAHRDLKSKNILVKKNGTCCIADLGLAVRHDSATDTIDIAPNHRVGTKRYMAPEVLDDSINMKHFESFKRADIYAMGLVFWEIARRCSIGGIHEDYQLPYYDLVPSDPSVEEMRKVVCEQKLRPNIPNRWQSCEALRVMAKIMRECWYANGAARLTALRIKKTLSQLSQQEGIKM
# Sequence of ALK2 FOP mutant (aa172-499 R206H) (Q04771 172-499 R206H): as the sequence (Q04771 172-499) above, with R35H counted along it
# Sequence of ALK3 (aa198-525) (P36894 198-525): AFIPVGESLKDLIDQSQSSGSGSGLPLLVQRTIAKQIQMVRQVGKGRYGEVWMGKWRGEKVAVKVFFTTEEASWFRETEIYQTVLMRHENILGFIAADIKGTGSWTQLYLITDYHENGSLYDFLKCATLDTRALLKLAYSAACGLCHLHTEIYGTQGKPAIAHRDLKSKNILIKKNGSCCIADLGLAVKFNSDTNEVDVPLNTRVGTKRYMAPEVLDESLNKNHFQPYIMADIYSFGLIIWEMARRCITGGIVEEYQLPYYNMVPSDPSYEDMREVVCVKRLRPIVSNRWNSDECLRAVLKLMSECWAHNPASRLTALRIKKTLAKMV
Compound,pIC50 [1],pIC50 [3],pIC50 [4],pIC50 (ALK5 (aa162-503)),pIC50 (ALK6 (aa168-495)),pIC50 (ALK3 (aa198-525)),pIC50 [5],pIC50 (ALK1 (aa166-493)),also measured
"CC(C)n1cc(-c2cncc(-c3ccc4c(c3)CC(=O)N4C)c2)ccc1=O [Example 1, 5-(1′-isopropyl-6′-oxo-1′,6′-dihydro-[3,3′-bipyridin]-5-yl)-1-methylindolin-2-one]",7.05,6.96,6.96,5.59,–,–,–,–,"Blood hemoglobin (C57BL/6J male mice): significantly improved; Hematocrit (C57BL/6J male mice): significantly improved; Cancellous BV/TV, %-change versus baseline ([2]; micro-CT): 8.9 ± 3.0 %; Cortical thickness, %-change versus baseline ([2]; micro-CT): 12.0 ± 2.2 %; Total BMD, %-change versus baseline ([2]; micro-CT): 5.6 ± 0.6 %; Trabecular number, %-change versus baseline ([2]; micro-CT): −0.6 ± 5.4%; Trabecular thickness, %-change versus baseline ([2]; micro-CT): 11.1 ± 2.9 %; Total BMC, %-change versus baseline ([2]; pQCT): 4.3 ± 1.7 %; Serum hepcidin levels (male Sprague Dawley rats; 6 hours post-TO, 3 or 10 mg/kg p.o.): strongly suppressed; Serum hepcidin concentration (male Sprague Dawley rats; 3 mg/kg p.o.): returned to levels of vehicle-treated TO-challenged rats; Serum hepcidin concentration (male Sprague Dawley rats; 10 mg/kg p.o., p<0.001): significantly reduced; Females in which heterotopic bone was absent (micro-CT) (ALK2(Q207D) mice): four of five; Heterotopic bone (total heterotopic bone volume, micro-CT), males (ALK2(Q207D) mice): absent; Female mice with radiographic evidence of HO (ALK2(Q207D) mice; vehicle 67%): one out of five; Male mice with radiographic evidence of HO (ALK2(Q207D) mice; vehicle 83%): none; Animals with radiographic evidence of beginning HO (female Wistar rats; 4 weeks post-tenotomy, vehicle 100%): 67%; Total heterotopic bone volume (female Wistar rats; 6 and 9 weeks post-surgery, versus vehicle): significant reduction of HO"
"CC(C)n1cc(-c2cncc(-c3ccc4c(c3)CC(=O)N4CCO)c2)ccc1=O [Example 45, 1-(2-hydroxyethyl)-5-(1′-isopropyl-6′-oxo-1′,6′-dihydro-[3,3′-bipyridin]-5-yl)indolin-2-one]",7.00,6.92,6.80,5.30,5.90,5.96,6.68,6.05,–
"CC(C)n1cc(-c2cncc(-c3ccc4c(c3)CC(=O)N4C)n2)ccc1=O [Example 46, 5-(6-(1-isopropyl-6-oxo-1,6-dihydropyridin-3-yl)pyrazin-2-yl)-1-methylindolin-2-one]",6.96,6.92,6.82,5.30,5.60,6.03,6.89,6.21,–
"CC(C)n1cc(-c2cncc(-c3ccc4c(c3)CC(=O)N4CCCO)c2)ccc1=O [Example 47, 1-(3-hydroxypropyl)-5-(1′-isopropyl-6′-oxo-1′,6′-dihydro-[3,3′-bipyridin]-5-yl)indolin-2-one]",6.82,6.85,6.76,5.38,5.82,5.95,6.55,5.96,–
"CC(C)n1cc(-c2cncc(-c3ccc4c(c3)CS(=O)(=O)N4C)c2)ccc1=O [Example 48, 1-isopropyl-5′-(1-methyl-2,2-dioxido-1,3-dihydrobenzo[c]isothiazol-5-yl)-[3,3′-bipyridin]-6(1H)-one]",7.22,7.22,7.15,5.62,6.00,6.55,7.08,6.68,–
